Assay results as given in ChEMBL document CHEMBL1201862, “PubChem BioAssay data set” (2004).
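Assay format: 96-well plates, 48-hour exposure. GI50 is the concentration that inhibits growth by half.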 Calls of active or inactive are those of the source. Rule as the data show it: active = GI50 up to about 1.1 µM and inactive = higher.

Tests used:
Assay in all cases: NCI tumour cell line growth inhibition, 48 h
DMS-273 = system: DMS-273
KM-20L2 = system: KM-20L2
RXF 393 = system: RXF 393
K562 = system: K562
HT-29 = system: HT-29
M19-MEL = system: M19-MEL
COLO 205 = system: COLO 205
MOLT-4 = system: MOLT-4
SN12C = system: SN12C
SK-OV-3 = system: SK-OV-3
SW-620 = system: SW-620
HOP-18 = system: HOP-18
HCT-116 = system: HCT-116
HOP-62 = system: HOP-62
SK-MEL-28 = system: SK-MEL-28
MCF7 = system: MCF7
OVCAR-4 = system: OVCAR-4
SNB-19 = system: SNB-19
SNB-75 = system: SNB-75
Malme-3M = system: Malme-3M
A549 = system: A549
SF-539 = system: SF-539
SK-MEL-2 = system: SK-MEL-2
HL-60 = system: HL-60
HOP-92 = system: HOP-92
UO-31 = system: UO-31
OVCAR-8 = system: OVCAR-8
NCI-H460 = system: NCI-H460
UACC-62 = system: UACC-62
CCRF-CEM = system: CCRF-CEM
U-251 = system: U-251
A498 = system: A498
SF-295 = system: SF-295
HCT-15 = system: HCT-15
RPMI-8226 = system: RPMI-8226
EKVX = system: EKVX
CAKI-1 = system: CAKI-1
KM12 = system: KM12
NCI-H23 = system: NCI-H23
LOX IMVI = system: LOX IMVI
SK-MEL-5 = system: SK-MEL-5
NCI/ADR-RES = system: NCI/ADR-RES
OVCAR-5 = system: OVCAR-5
OVCAR-3 = system: OVCAR-3
DLD-1 = system: DLD-1
NCI-H226 = system: NCI-H226
NCI-H522 = system: NCI-H522
IGROV-1 = system: IGROV-1
SF-268 = system: SF-268
SNB-78 = system: SNB-78
UACC-257 = system: UACC-257
XF498 = system: XF498
HCC 2998 = system: HCC 2998
DMS-114 = system: DMS-114
M14 = system: M14
786-0 = system: 786-0
LXFL 529 = system: LXFL 529
ACHN = system: ACHN
SR = system: SR
TK-10 = system: TK-10

For `S=P1(Sc2ccccc2)Oc2ccc3ccccc3c2-c2c(ccc3ccccc23)O1`, the GI50 (DMS-273) was > 100 µM (inactive), the GI50 (KM-20L2) was 67.1 µM (inactive) and the GI50 (RXF 393) was > 83 µM (inactive). For the same compound, the GI50 (K562) was 80.7 µM (inactive), the GI50 (HT-29) was 51.5 µM (inactive) and the GI50 (M19-MEL) was > 100 µM (inactive). The GI50 (COLO 205) was > 100 µM (inactive), the GI50 (MOLT-4) was > 82.6 µM (inactive) and the GI50 (SN12C) was > 100 µM (inactive). For the same compound, the GI50 (SK-OV-3) was > 100 µM (inactive), the GI50 (SW-620) was > 100 µM (inactive) and the GI50 (HOP-18) was > 92.5 µM (inactive). The GI50 (HCT-116) was > 100 µM (inactive), the GI50 (HOP-62) was > 100 µM (inactive) and the GI50 (SK-MEL-28) was > 78.5 µM (inactive). For the same compound, the GI50 (MCF7) was 71.8 µM (inactive), the GI50 (OVCAR-4) was > 100 µM (inactive) and the GI50 (SNB-19) was > 100 µM (inactive). For the same compound, the GI50 (SNB-75) was > 100 µM (inactive), the GI50 (Malme-3M) was > 100 µM (inactive) and the GI50 (A549) was > 100 µM (inactive). The GI50 (SF-539) was > 100 µM (inactive), the GI50 (SK-MEL-2) was > 100 µM (inactive) and the GI50 (HL-60) was > 77.4 µM (inactive). For the same compound, the GI50 (HOP-92) was > 100 µM (inactive), the GI50 (UO-31) was > 100 µM (inactive) and the GI50 (OVCAR-8) was > 100 µM (inactive). The GI50 (NCI-H460) was > 100 µM (inactive), the GI50 (UACC-62) was > 100 µM (inactive) and the GI50 (CCRF-CEM) was > 100 µM (inactive). The GI50 (U-251) was > 95.5 µM (inactive), the GI50 (A498) was > 84.7 µM (inactive) and the GI50 (SF-295) was > 100 µM (inactive). The GI50 (HCT-15) was > 80.4 µM, the GI50 (RPMI-8226) was > 100 µM (inactive) and the GI50 (EKVX) was > 100 µM (inactive). The GI50 (CAKI-1) was > 83.9 µM (inactive), the GI50 (KM12) was > 100 µM (inactive) and the GI50 (NCI-H23) was > 100 µM (inactive). For the same compound, the GI50 (LOX IMVI) was > 79.6 µM (inactive), the GI50 (SK-MEL-5) was > 100 µM (inactive) and the GI50 (NCI/ADR-RES) was > 100 µM (inactive). The GI50 (OVCAR-5) was > 100 µM (inactive), the GI50 (OVCAR-3) was 70 µM (inactive) and the GI50 (DLD-1) was > 100 µM (inactive). For the same compound, the GI50 (NCI-H226) was > 100 µM (inactive), the GI50 (NCI-H522) was 49.9 µM (inactive) and the GI50 (IGROV-1) was > 100 µM (inactive). The GI50 (SF-268) was > 100 µM (inactive), the GI50 (SNB-78) was > 100 µM (inactive) and the GI50 (UACC-257) was > 100 µM (inactive). The GI50 (XF498) was > 100 µM (inactive), the GI50 (HCC 2998) was > 100 µM (inactive) and the GI50 (DMS-114) was > 58.6 µM (inactive).

In the case of `Cn1ccnc1CCc1c(Cl)cccc1Cl`, the GI50 (DMS-273) is reported as > 100 µM (inactive), the GI50 (KM-20L2) is reported as > 100 µM (inactive) and the GI50 (RXF 393) is reported as > 100 µM (inactive). The GI50 (K562) was > 100 µM (inactive), the GI50 (HT-29) was > 100 µM (inactive) and the GI50 (M19-MEL) was > 100 µM (inactive). The GI50 (COLO 205) was > 100 µM (inactive), the GI50 (MOLT-4) was > 100 µM (inactive) and the GI50 (SN12C) was > 100 µM (inactive). For the same compound, the GI50 (M14) was > 100 µM (inactive), the GI50 (SK-OV-3) was > 100 µM (inactive) and the GI50 (SW-620) was > 100 µM (inactive). For the same compound, the GI50 (HOP-18) was 51.4 µM (inactive), the GI50 (HCT-116) was > 100 µM (inactive) and the GI50 (HOP-62) was > 100 µM (inactive). The GI50 (SK-MEL-28) was > 100 µM (inactive), the GI50 (OVCAR-4) was > 100 µM (inactive) and the GI50 (SNB-75) was > 100 µM (inactive). The GI50 (Malme-3M) was > 100 µM (inactive), the GI50 (786-0) was > 100 µM (inactive) and the GI50 (LXFL 529) was > 100 µM (inactive). The GI50 (A549) was > 100 µM (inactive), the GI50 (SF-539) was > 100 µM (inactive) and the GI50 (SK-MEL-2) was > 100 µM (inactive). The GI50 (HL-60) was > 100 µM (inactive), the GI50 (HOP-92) was 52.1 µM (inactive) and the GI50 (UO-31) was 71.3 µM (inactive). For the same compound, the GI50 (OVCAR-8) was > 100 µM (inactive), the GI50 (NCI-H460) was > 100 µM (inactive) and the GI50 (UACC-62) was > 100 µM (inactive). For the same compound, the GI50 (CCRF-CEM) was > 100 µM (inactive), the GI50 (U-251) was > 100 µM (inactive) and the GI50 (A498) was > 100 µM (inactive). The GI50 (SF-295) was > 100 µM (inactive), the GI50 (HCT-15) was > 100 µM and the GI50 (RPMI-8226) was > 100 µM (inactive). For the same compound, the GI50 (CAKI-1) was > 100 µM (inactive), the GI50 (KM12) was > 100 µM (inactive) and the GI50 (NCI-H23) was > 100 µM (inactive). For the same compound, the GI50 (LOX IMVI) was > 100 µM (inactive), the GI50 (ACHN) was > 100 µM (inactive) and the GI50 (SK-MEL-5) was > 100 µM (inactive). For the same compound, the GI50 (OVCAR-5) was > 100 µM (inactive), the GI50 (OVCAR-3) was > 100 µM (inactive) and the GI50 (DLD-1) was > 100 µM (inactive). The GI50 (NCI-H226) was > 100 µM (inactive), the GI50 (SR) was > 100 µM (inactive) and the GI50 (NCI-H522) was > 100 µM (inactive). The GI50 (IGROV-1) was > 100 µM (inactive), the GI50 (TK-10) was > 100 µM (inactive) and the GI50 (SF-268) was > 100 µM (inactive). For the same compound, the GI50 (SNB-78) was > 100 µM (inactive), the GI50 (UACC-257) was > 100 µM (inactive) and the GI50 (DMS-114) was > 100 µM (inactive).
